Target: T1, GPR6 receptor expressed in CHO-K1 cells (Homo sapiens, UniProt P46095)
T1 construct: expressed in transfected cells
Assay: In vitro inhibition of cAMP (EC50), cell-based HTRF cAMP assay
Settings: inhibition of constitutive cAMP activity of GPR6 in CHO-K1 cells
Description: I. In Vitro Inhibition of cAMP (EC50)
This cell based assay measures the ability of test compounds to inhibit the constitutive cAMP activity of GPR6 receptor expressed in CHO-K1 cells. CHO cells are stably expressed with GPR6 receptor, whose expression is controlled by a tetracycline inducible element. The cells were cultured in medium containing F12K, 10% FBS, 1% Penn/Strep, 200 μg/mL Hygromycin. GPR6 receptor expression is induced for 20 hours with 2 μg/mL doxycycline (Sigma D9891) in growth media. After addition of doxycycline, the cells are plated at a density of 450-750 cells per well in 96-well half-volume black tissue culture plates (Costar) and placed in an incubator (37° C., 5% CO2) for 20 hours prior to cAMP assays.
Culture media is removed from the cells and they are washed with 50 μL/well of Ringer's Buffer (MgCl2 0.047 mg/mL, NaH2PO4 0.18 mg/mL, Na2HPO4 0.1 mg/mL, KCl 0.34 mg/mL, NaHCO3 1.26 mg/mL, D-glucose 1.8 mg/mL, NaCl 7 mg/mL; pH=7.4). The test compounds are suspended in DMSO, diluted in Ringer's Buffer containing 0.5% fatty acid free BSA plus 300 μM IBMX, and incubated on the cells for 45 minutes at 37° C. and 5% CO2. After incubation, the cells are conditioned for 10 minutes at room temp with Eu-cAMP tracer solution from a Perkin Elmer Lance HTRF Ultra cAMP assay kit (TRF0263). Then ULight™-anti-cAMP solution from the Lance HTRF kit is added and incubated on a shaker at room temp for 1 hour prior to HTRF detection in a Perkin Elmer Envision plate reader. EC50 curves are generated with a four-parameter logistic equation using GraphPad Prism 5.03.
Table 1 lists biological assay data (in vitro inhibition of cAMP) for some of the compounds shown in the examples, where larger pEC50 values represent higher activity or potency. All of the compounds shown in Table 1 were tested in accordance with a cell-based assay which measures the ability of test compounds to inhibit the constitutive cAMP activity of GPR6 receptor expressed in CHO-K1 cells (reported as pEC50). The assay is described in the specification under the heading “In vitro inhibition of cAMP (EC50).”

T1 sequence (P46095 whole entry): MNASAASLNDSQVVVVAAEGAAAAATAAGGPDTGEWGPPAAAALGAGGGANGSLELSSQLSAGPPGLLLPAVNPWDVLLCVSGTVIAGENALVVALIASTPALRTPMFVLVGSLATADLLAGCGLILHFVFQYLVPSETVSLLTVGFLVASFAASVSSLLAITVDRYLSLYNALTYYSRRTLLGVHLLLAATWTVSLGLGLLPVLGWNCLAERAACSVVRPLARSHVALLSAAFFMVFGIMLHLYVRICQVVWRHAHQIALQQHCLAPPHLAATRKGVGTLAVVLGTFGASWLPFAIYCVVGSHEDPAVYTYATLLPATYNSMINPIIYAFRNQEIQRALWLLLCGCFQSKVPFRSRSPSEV

Row | SMILES | pEC50, in vitro inhibition of cAMP
1 | COc1ncccc1C(=O)Nc1cc(C#N)nnc1N1CCC(Oc2ccc(F)cc2F)CC1 [Example 282, N-(6-cyano-3-(4-(2,4-difluorophenoxy)piperidin-1-yl)pyridazin-4-yl)-2-methoxynicotinamide] | 7.2
2 | Cn1cccc(C(=O)Nc2cc(C#N)ccc2N2CCC(Oc3ccc(F)c(F)c3)CC2)c1=O [Example 16] | 6.6
3 | N#Cc1ccc(N2CCC(Oc3ccc(F)cc3F)CC2)c(NC(=O)c2cccn(C(F)F)c2=O)c1 [Example 277, N-(5-cyano-2-(4-(2,4-difluorophenoxy)piperidin-1-yl)phenyl)-1-(difluoromethyl)-2-oxo-1,2-dihydropyridine-3-carboxamide] | 6.5
4 | Cn1cccc(C(=O)Nc2cc(C#N)ccc2N2CCC(Oc3c(F)cccc3F)CC2)c1=O [Example 13, N-(5-cyano-2-(4-(2,6-difluorophenoxy)piperidin-1-yl)phenyl)-1-methyl-2-oxo-1,2-dihydropyridine-3-carboxamide] | 6.3
5 | COc1ccc(F)cc1CN1CCN(c2ncc(C#N)cc2NC(=O)c2cn(C)nc2OC)CC1 [Example 161, N-(5-cyano-2-(4-(5-fluoro-2-methoxybenzyl)piperazin-1-yl)pyridin-3-yl)-3-methoxy-1-methyl-1H-pyrazole-4-carboxamide] | 6.5
6 | N#Cc1ccc(N2CCC(Oc3ccc(F)cc3F)CC2)c(NC(=O)c2ccc(F)cn2)c1 [Example 106, N-(5-cyano-2-(4-(2,4-difluorophenoxy)piperidin-1-yl)phenyl)-5-fluoropicolinamide] | 6.5
7 | COc1nc(C(F)(F)F)ccc1C(=O)Nc1cc(C#N)ccc1N1CCC(Oc2ccc(F)cc2F)CC1 [Example 213] | 6.8
8 | Cc1ccc(NC(=O)c2cc(F)cnc2O)c(N2CCN(Cc3ccc(F)cc3)CC2)n1 [Example 101, 5-fluoro-N-(2-(4-(4-fluorobenzyl)piperazin-1-yl)-6-methylpyridin-3-yl)-2-hydroxynicotinamide] | 5.9
9 | COc1ncccc1C(=O)Nc1cc(C(=O)N(C)C)ccc1N1CCC(Oc2ccc(F)cc2F)CC1 [Example 265] | 6.7
10 | COc1ncccc1C(=O)Nc1cnc(C#N)cc1N1CCC(Oc2ccc(F)cc2F)CC1 [Example 270, N-(6-cyano-4-(4-(2,4-difluorophenoxy)piperidin-1-yl)pyridin-3-yl)-2-methoxynicotinamide] | 6.9
11 | COc1cnccc1C(=O)Nc1cc(C#N)ccc1N1CCC(Oc2ccc(F)cc2F)CC1 [Example 25, N-(5-cyano-2-(4-(2,4-difluorophenoxy)piperidin-1-yl)phenyl)-3-methoxyisonicotinamide] | 7.0
12 | Cn1cnc(C(=O)Nc2cc(C#N)ccc2N2CCC(Oc3ccc(F)cc3F)CC2)c1 [Example 45, N-(5-cyano-2-(4-(2,4-difluorophenoxy)piperidin-1-yl)phenyl)-1-methyl-1H-imidazole-4-carboxamide] | 6.6
13 | COc1cc(N(C)C)ccc1C(=O)Nc1cc(C#N)ccc1N1CCC(Oc2ccc(F)cc2F)CC1 [Example 188, N-(5-cyano-2-(4-(2,4-difluorophenoxy)piperidin-1-yl)phenyl)-4-(dimethylamino)-2-methoxybenzamide] | 6.4
14 | COc1ncccc1C(=O)Nc1cc(CO)cnc1N1CCC(Oc2ccc(F)cc2F)CC1 [Example 34, N-(2-(4-(2,4-difluorophenoxy)piperidin-1-yl)-5-(hydroxymethyl)pyridin-3-yl)-2-methoxynicotinamide] | 7.0
15 | COc1c(F)ccc(F)c1C(=O)Nc1cc(C#N)ccc1N1CCC(Oc2ccc(F)cc2F)CC1 [Example 189, N-(5-cyano-2-(4-(2,4-difluorophenoxy)piperidin-1-yl)phenyl)-3,6-difluoro-2-methoxybenzamide] | 5.8
16 | N#Cc1ccc(N2CCC(Oc3ccc(F)cc3F)CC2)c(NC(=O)c2cnsn2)c1 [Example 134, N-(5-cyano-2-(4-(2,4-difluorophenoxy)piperidin-1-yl)phenyl)-1,2,5-thiadiazole-3-carboxamide] | 5.8
17 | N#Cc1ccc(N2CCC(Oc3ccc(F)cc3F)CC2)c(NC(=O)c2cnccn2)c1 [Example 44, N-(5-cyano-2-(4-(2,4-difluorophenoxy)piperidin-1-yl)phenyl)pyrazine-2-carboxamide] | 6.2
18 | COc1ccc(C(=O)Nc2cc(C#N)ccc2N2CCC(Oc3ccc(F)cc3F)CC2)nn1 [Example 136, N-(5-cyano-2-(4-(2,4-difluorophenoxy)piperidin-1-yl)phenyl)-6-methoxypyridazine-3-carboxamide] | 6.8
19 | COc1cccc(C(=O)Nc2cc(C#N)ccc2N2CCC(Oc3ccc(F)cc3F)CC2)n1 [Example 175, N-(5-cyano-2-(4-(2,4-difluorophenoxy)piperidin-1-yl)phenyl)-6-methoxypicolinamide] | 7.0
20 | N#Cc1ccc(N2CCC(Oc3ccc(F)cc3F)CC2)c(NC(=O)c2csnn2)c1 [Example 116, N-(5-cyano-2-(4-(2,4-difluorophenoxy)piperidin-1-yl)phenyl)-1,2,3-thiadiazole-4-carboxamide] | 5.9
21 | COc1nn(C)cc1C(=O)Nc1cc(C#N)cnc1N1CCN(Cc2ccccc2OC(F)F)CC1 [Example 163, N-(5-cyano-2-(4-(2-(difluoromethoxy)benzyl)piperazin-1-yl)pyridin-3-yl)-3-methoxy-1-methyl-1H-pyrazole-4-carboxamide] | 6.7
22 | COc1cscc1C(=O)Nc1cc(C#N)ccc1N1CCC(Oc2ccc(F)cc2F)CC1 [Example 47, N-(5-cyano-2-(4-(2,4-difluorophenoxy)piperidin-1-yl)phenyl)-4-methoxythiophene-3-carboxamide] | 7.2
23 | Cc1nccc(C(=O)Nc2cc(C#N)ccc2N2CCC(Oc3ccc(F)cc3F)CC2)n1 [Example 141, N-(5-cyano-2-(4-(2,4-difluorophenoxy)piperidin-1-yl)phenyl)-2-methylpyrimidine-4-carboxamide] | 7.2
24 | COc1ncccc1C(=O)Nc1cc(C#N)ccc1N1CCN(Cc2ccccc2F)CC1 [Example 239, N-(5-cyano-2-(4-(2-fluorobenzyl)piperazin-1-yl)phenyl)-2-methoxynicotinamide] | 6.9
25 | N#Cc1ccc(N2CCC(Oc3ccc(F)cc3F)CC2)c(NC(=O)c2cnn3c2OCCC3)c1 [Example 53, N-(5-cyano-2-(4-(2,4-difluorophenoxy)piperidin-1-yl)phenyl)-6,7-dihydro-5H-pyrazolo[5,1-b][1,3]oxazine-3-carboxamide] | 6.3
26 | Cc1ocnc1C(=O)Nc1cc(C#N)ccc1N1CCC(Oc2ccc(F)cc2F)CC1 [Example 127, N-(5-cyano-2-(4-(2,4-difluorophenoxy)piperidin-1-yl)phenyl)-5-methyloxazole-4-carboxamide] | 6.1
27 | N#Cc1ccc(N2CCC(Oc3ccc(F)cc3F)CC2)c(NC(=O)c2ccc(O)nn2)c1 [Example 52, N-(5-cyano-2-(4-(2,4-difluorophenoxy)piperidin-1-yl)phenyl)-6-hydroxypyridazine-3-carboxamide] | 6.2
28 | COc1ncccc1C(=O)Nc1cc(C#N)ccc1N1CCN(Cc2ccc(F)c(F)c2)CC1 [Example 246, N-(5-cyano-2-(4-(3,4-difluorobenzyl)piperazin-1-yl)phenyl)-2-methoxynicotinamide] | 7.1
29 | CS(=O)(=O)c1ccc(N2CCC(Oc3ccc(F)cc3F)CC2)c(NC(=O)c2cnn3c2OCCCC3)c1 [Example 38, N-(2-(4-(2,4-difluorophenoxy)piperidin-1-yl)-5-(methylsulfonyl)phenyl)-5,6,7,8-tetrahydropyrazolo[5,1-b][1,3]oxazepine-3-carboxamide] | 6.8
30 | COc1cccc(CN2CCN(c3ncc(C#N)cc3NC(=O)c3cn(C)nc3OC)CC2)c1 [Example 156, N-(5-cyano-2-(4-(3-methoxybenzyl)piperazin-1-yl)pyridin-3-yl)-3-methoxy-1-methyl-1H-pyrazole-4-carboxamide] | 6.4

Source: patent US11426397B2, “Piperidinyl- and piperazinyl-substituted heteroaromatic carboxamides as modulators of GPR6” (TAKEDA PHARMACEUTICAL COMPANY LIMITED, priority 2017, dated 2022)
